{
  "source": "patent US20040266623A1",
  "about": "“SYNERGISTIC QUINCLORAC HERBICIDAL COMPOSITIONS” (priority 2003, published 2004)",
  "tested_on": "dandelion",
  "assay": "Greenhouse pot test, postemergent spray, visual control rating converted to percent control",
  "format": "in vivo",
  "in_short": "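Potted plants in soilless greenhouse medium were sprayed at 43.46 gallons of spray solution/acre and kept in the greenhouse. Effects were rated visually on a 1–9 scale (1 = no control, 9 = plant death) at 24, 48 and 72 HAT and 7, 14 and 21 DAT, then converted to percent control.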",
  "data": [
    {"molecule": "O=C(O)c1c(Cl)ccc2cc(Cl)cnc12", "note": "[Quinclorac, 3,7-dichloro-8-quinolinecarboxylic acid]", "values": [
      {"measurement": "% Control Dandelion", "setting": "Test 1, 7 DAT, 0.18 lbs/A", "value": 33.3, "unit": "%"},
      {"measurement": "Control (1-9) Dandelion", "setting": "Test 1, 7 DAT, 0.18 lbs/A", "value": 3},
      {"measurement": "% Control Dandelion", "setting": "Test 1, 7 DAT, 0.375 lbs/A", "value": 33.3, "unit": "%"},
      {"measurement": "Control (1-9) Dandelion", "setting": "Test 1, 7 DAT, 0.375 lbs/A", "value": 3},
      {"measurement": "% Control Dandelion", "setting": "Test 1, 7 DAT, 0.75 lbs/A", "value": 33.3, "unit": "%"},
      {"measurement": "Control (1-9) Dandelion", "setting": "Test 1, 7 DAT, 0.75 lbs/A", "value": 3},
      {"measurement": "% Control Dandelion", "setting": "Test 1, 14 DAT, 0.18 lbs/A", "value": 88.9, "unit": "%"},
      {"measurement": "Control (1-9) Dandelion", "setting": "Test 1, 14 DAT, 0.18 lbs/A", "value": 8},
      {"measurement": "% Control Dandelion", "setting": "Test 1, 14 DAT, 0.375 lbs/A", "value": 77.8, "unit": "%"},
      {"measurement": "Control (1-9) Dandelion", "setting": "Test 1, 14 DAT, 0.375 lbs/A", "value": 7},
      {"measurement": "% Control Dandelion", "setting": "Test 1, 14 DAT, 0.75 lbs/A", "value": 66.7, "unit": "%"},
      {"measurement": "Control (1-9) Dandelion", "setting": "Test 1, 14 DAT, 0.75 lbs/A", "value": 6},
      {"measurement": "% Control Dandelion", "setting": "Test 1, 24 HAT, 0.18 lbs/A", "value": 22.2, "unit": "%"},
      {"measurement": "Control (1-9) Dandelion", "setting": "Test 1, 24 HAT, 0.18 lbs/A", "value": 2},
      {"measurement": "% Control Dandelion", "setting": "Test 1, 24 HAT, 0.375 lbs/A", "value": 11.1, "unit": "%"},
      {"measurement": "Control (1-9) Dandelion", "setting": "Test 1, 24 HAT, 0.375 lbs/A", "value": 1},
      {"measurement": "% Control Dandelion", "setting": "Test 1, 24 HAT, 0.75 lbs/A", "value": 11.1, "unit": "%"},
      {"measurement": "Control (1-9) Dandelion", "setting": "Test 1, 24 HAT, 0.75 lbs/A", "value": 1},
      {"measurement": "% Control Dandelion", "setting": "Test 1, 48 HAT, 0.18 lbs/A", "value": 33.3, "unit": "%"},
      {"measurement": "Control (1-9) Dandelion", "setting": "Test 1, 48 HAT, 0.18 lbs/A", "value": 3},
      {"measurement": "% Control Dandelion", "setting": "Test 1, 48 HAT, 0.375 lbs/A", "value": 33.3, "unit": "%"},
      {"measurement": "Control (1-9) Dandelion", "setting": "Test 1, 48 HAT, 0.375 lbs/A", "value": 3},
      {"measurement": "% Control Dandelion", "setting": "Test 1, 48 HAT, 0.75 lbs/A", "value": 33.3, "unit": "%"},
      {"measurement": "Control (1-9) Dandelion", "setting": "Test 1, 48 HAT, 0.75 lbs/A", "value": 3},
      {"measurement": "% Control Dandelion", "setting": "Test 2, 7 DAT, 0.18 lbs/A", "value": 88.9, "unit": "%"},
      {"measurement": "Control (1-9) Dandelion", "setting": "Test 2, 7 DAT, 0.18 lbs/A", "value": 8},
      {"measurement": "% Control Dandelion", "setting": "Test 2, 7 DAT, 0.375 lbs/A", "value": 33.3, "unit": "%"},
      {"measurement": "Control (1-9) Dandelion", "setting": "Test 2, 7 DAT, 0.375 lbs/A", "value": 3},
      {"measurement": "% Control Dandelion", "setting": "Test 2, 7 DAT, 0.75 lbs/A", "value": 33.3, "unit": "%"},
      {"measurement": "Control (1-9) Dandelion", "setting": "Test 2, 7 DAT, 0.75 lbs/A", "value": 3},
      {"measurement": "% Control Dandelion", "setting": "Test 2, 14 DAT, 0.18 lbs/A", "value": 88.9, "unit": "%"},
      {"measurement": "Control (1-9) Dandelion", "setting": "Test 2, 14 DAT, 0.18 lbs/A", "value": 8},
      {"measurement": "% Control Dandelion", "setting": "Test 2, 14 DAT, 0.375 lbs/A", "value": 88.9, "unit": "%"},
      {"measurement": "Control (1-9) Dandelion", "setting": "Test 2, 14 DAT, 0.375 lbs/A", "value": 8},
      {"measurement": "% Control Dandelion", "setting": "Test 2, 14 DAT, 0.75 lbs/A", "value": 66.7, "unit": "%"},
      {"measurement": "Control (1-9) Dandelion", "setting": "Test 2, 14 DAT, 0.75 lbs/A", "value": 6},
      {"measurement": "% Control Dandelion", "setting": "Test 2, 24 HAT, 0.18 lbs/A", "value": 22.2, "unit": "%"},
      {"measurement": "Control (1-9) Dandelion", "setting": "Test 2, 24 HAT, 0.18 lbs/A", "value": 2},
      {"measurement": "% Control Dandelion", "setting": "Test 2, 24 HAT, 0.375 lbs/A", "value": 22.2, "unit": "%"},
      {"measurement": "Control (1-9) Dandelion", "setting": "Test 2, 24 HAT, 0.375 lbs/A", "value": 2},
      {"measurement": "% Control Dandelion", "setting": "Test 2, 24 HAT, 0.75 lbs/A", "value": 22.2, "unit": "%"},
      {"measurement": "Control (1-9) Dandelion", "setting": "Test 2, 24 HAT, 0.75 lbs/A", "value": 2},
      {"measurement": "% Control Dandelion", "setting": "Test 2, 72 HAT, 0.18 lbs/A", "value": 55.6, "unit": "%"},
      {"measurement": "Control (1-9) Dandelion", "setting": "Test 2, 72 HAT, 0.18 lbs/A", "value": 5},
      {"measurement": "% Control Dandelion", "setting": "Test 2, 72 HAT, 0.375 lbs/A", "value": 33.3, "unit": "%"},
      {"measurement": "Control (1-9) Dandelion", "setting": "Test 2, 72 HAT, 0.375 lbs/A", "value": 3},
      {"measurement": "% Control Dandelion", "setting": "Test 2, 72 HAT, 0.75 lbs/A", "value": 33.3, "unit": "%"},
      {"measurement": "Control (1-9) Dandelion", "setting": "Test 2, 72 HAT, 0.75 lbs/A", "value": 3},
      {"measurement": "% Control Dandelion", "setting": "Test 4, 7 DAT, 0.18 lbs/A", "value": 22.2, "unit": "%"},
      {"measurement": "Control (1-9) Dandelion", "setting": "Test 4, 7 DAT, 0.18 lbs/A", "value": 2},
      {"measurement": "% Control Dandelion", "setting": "Test 4, 7 DAT, 0.375 lbs/A", "value": 22.2, "unit": "%"},
      {"measurement": "Control (1-9) Dandelion", "setting": "Test 4, 7 DAT, 0.375 lbs/A", "value": 2},
      {"measurement": "% Control Dandelion", "setting": "Test 4, 7 DAT, 0.75 lbs/A", "value": 22.2, "unit": "%"},
      {"measurement": "Control (1-9) Dandelion", "setting": "Test 4, 7 DAT, 0.75 lbs/A", "value": 2},
      {"measurement": "% Control Dandelion", "setting": "Test 4, 14 DAT, 0.18 lbs/A", "value": 22.2, "unit": "%"},
      {"measurement": "Control (1-9) Dandelion", "setting": "Test 4, 14 DAT, 0.18 lbs/A", "value": 2},
      {"measurement": "% Control Dandelion", "setting": "Test 4, 14 DAT, 0.375 lbs/A", "value": 22.2, "unit": "%"},
      {"measurement": "Control (1-9) Dandelion", "setting": "Test 4, 14 DAT, 0.375 lbs/A", "value": 2},
      {"measurement": "% Control Dandelion", "setting": "Test 4, 14 DAT, 0.75 lbs/A", "value": 22.2, "unit": "%"},
      {"measurement": "Control (1-9) Dandelion", "setting": "Test 4, 14 DAT, 0.75 lbs/A", "value": 2}
    ]}
  ]
}
